According to US9994587B2, “HIV protease inhibitors” (priority 2014, dated 2018):

The compounds below were run against T1, wildtype HIV-1 protease (Human immunodeficiency virus type 1 group M subtype B, UniProt P04585) (assay: Assay for inhibition of microbial expressed HIV protease (Pepcleav)). Conditions: wild type HIV-1 protease 20 pM, peptide substrate 400 micromolar, pH 5.5; mean of at least two independent experiments.
T1 construct: preincubated with the HIV-1 protease (wild type) enzyme in assay buffer; made in house; host or cells: Escherichia coli
Type: biochemical
Experimental: Assay for Inhibition of Microbial Expressed HIV Protease (“Pepcleav”)
Studies of the inhibition of the wildtype HIV-1 protease (which was expressed in Escherichia coli) were carried out with a peptide substrate [Val-Ser-Gln-Asn-(βnaphtyl)Ala-Pro-Ile-Val (SEQ ID NO 1)]. The inhibitor was first preincubated with the HIV-1 protease (wild type) enzyme in assay buffer (50 mM sodium acetate, pH 5.5, 100 mM NaCl, and 0.1% BSA) for 30 minutes at room temperature. Substrate was added to 400 micromolar in a total volume of 20 microliters containing 20 picomolar HIV-1 protease (final) and the reaction is incubated for 1 hour at 30° C. The reaction was quenched with the addition of formic acid and indinavir to 0.012% and 150 nM final concentrations, respectively. Product formation was determined after separation of product and substrate on a Zorbax Eclipse XDB-C18 column connected to an API 4000 mass spectrometer (Applied Biosystems) with multiple reaction monitoring (transitions were 644.5/428.9 and 615.4/422.2 (M1/M3) for product and indinavir respectively). The extent of inhibition of the reaction was determined from the peak area of the products.
COC(=O)N[C@H](C(=O)Nc1ccccc1CC[C@@H]1CNC[C@@H](/C=C/c2ccc(S(C)(=O)=O)cc2)O1)C(c1ccccc1)c1ccccc1 [Example 61, N-α-(methoxycarbonyl)-N-(2-{2-[(2R,6R)-6-{(E)-2-[4-(methylsulfonyl)phenyl]ethenyl}morpholin-2-yl]ethyl}phenyl)-β-phenyl-L-phenylalaninamide] gave an IC50 of 0.0059 µM.
Work on COC(=O)N[C@H](C(=O)Nc1cncc(F)c1CC[C@@H]1CNC[C@@H](COc2ccc(C#N)cc2)O1)C(c1ccccc1)c1ccccc1 [Example 82, Methyl[(1S)-2-{[4-(2-{(2R,6S)-6-[(4-cyanophenoxy)methyl]morpholin-2-yl}ethyl)-5-fluoropyridin-3-yl]amino}-1-(diphenylmethyl)-2-oxoethyl]carbamate] yielded an IC50 of 0.0098 µM.
For N[C@@H](C(=O)Nc1cncc(F)c1CC[C@@H]1CNC[C@@H](CSc2ccc(Cl)cc2)O1)C(c1ccc(F)cc1)c1ccc(F)cc1 [Example 122, N-(4-{2-[(2R,6S)-6-{[(4-chlorophenyl)sulfanyl]methyl}morpholin-2-yl]ethyl}-5-fluoropyridin-3-yl)-4-fluoro-β-(4-fluorophenyl)-D-phenylalaninamide], the IC50 was 0.009 µM.
With NC(=O)OC[C@@H]1CNC[C@@H](CCc2c(F)cncc2NC(=O)[C@@H](N)C(c2ccc(F)cc2)c2ccc(F)cc2)O1 [Example 124, N-[4-(2-{(2R,6S)-6-[(carbamoyloxy)methyl]morpholin-2-yl}ethyl)-5-fluoropyridin-3-yl]-4-fluoro-β-(4-fluorophenyl)-L-phenylalaninamide] the IC50 was 0.12 µM.
In the case of COC(=O)N[C@H](C(=O)Nc1ccccc1CC[C@@H]1CNC[C@@H](COc2ccc(Cc3ccccc3)cc2)O1)C(c1ccccc1)c1ccccc1 [Example 12, methyl N-[(1S)-1-benzhydryl-2-[[2-[2-[(2R,6S)-6-[(4-benzylphenoxy)methyl]morpholin-2-yl]ethyl]phenyl]amino]-2-oxo-ethyl]carbamate], the IC50 is reported as 0.024 µM.
COC(=O)N[C@H](C(=O)Nc1cc(F)ccc1CC[C@@H]1CNC[C@@H](COc2ccc(C#N)cc2)O1)C(c1ccccc1)c1ccccc1 [Example 72, N-[2-(2-{(2R,6S)-6-[(4-cyanophenoxy)methyl]morpholin-2-yl}ethyl)-5-fluorophenyl]-Nα-(methoxycarbonyl)-β-phenyl-L-phenylalaninamide] was tested, and the IC50 was 0.023 µM.
In the case of COC(=O)N[C@H](C(=O)Nc1nccnc1CC[C@@H]1CNC[C@@H](COc2ccc(C#N)cc2)O1)C(c1ccccc1)c1ccccc1 [Example 84, methyl N-[(1S)-1-benzhydryl-2-[[3-[2-[(2R,6S)-6-[(4-cyanophenoxy)methyl]morpholin-2-yl]ethyl]pyrazin-2-yl]amino]-2-oxo-ethyl]carbamate], the IC50 is reported as 0.43 µM.
Work on COC(=O)N[C@H](C(=O)Nc1ccccc1CC[C@@H]1CNC[C@@H](CSc2ccc(Br)cc2F)O1)C(c1ccccc1)c1ccccc1 [Example 27, methyl N-[(1S)-1-benzhydryl-2-[[2-[2-[(2R,6S)-6-[(4-bromo-2-fluoro-phenyl)sulfanylmethyl]morpholin-2-yl]ethyl]phenyl]amino]-2-oxo-ethyl]carbamate] yielded an IC50 of 0.00053 µM.
Compound COC(=O)N[C@H](C(=O)Nc1c(F)cccc1CC[C@@H]1CNC[C@@H](CSc2nc3cc(F)c(Cl)cc3[nH]2)O1)C(c1ccccc1)c1ccccc1 [Example 77, N-(2-{2-[(2R,6S)-6-{[(6-chloro-5-fluoro-1H-benzimidazol-2-yl)sulfanyl]methyl}morpholin-2-yl]ethyl}-6-fluorophenyl)-Nα-(methoxycarbonyl)-β-phenyl-L-phenylalaninamide] has an IC50 of 0.011 µM.
COC(=O)N[C@H](C(=O)Nc1ccccc1CCC1CNC[C@@H](COc2ccccc2-c2cc[nH]n2)O1)C(c1ccccc1)c1ccccc1 (stereo in doubt) [Example 110, Nα-(methoxycarbonyl)-β-phenyl-N-(2-{2-[(2R,6S)-6-{[2-(1H-pyrazol-3-yl)phenoxy]methyl}morpholin-2-yl]ethyl}phenyl)-L-phenylalaninamide] was tested, and the IC50 was 0.25 µM.
COC(=O)N[C@H](C(=O)Nc1ccccc1CC[C@@H]1CNC[C@@H](C[S+]([O-])c2ccc(Cl)cc2)O1)C(c1ccccc1)c1ccccc1 (stereo partly drawn) [Example 57, methyl N-[(1S)-1-benzhydryl-2-[[2-[2-[(2R,6S)-6-[(4-chlorophenyl)sulfinylmethyl]morpholin-2-yl]ethyl]phenyl]amino]-2-oxo-ethyl]carbamate] gave an IC50 of 0.28 µM.
For COC(=O)N[C@H](C(=O)Nc1ccccc1CC[C@@H]1CNC[C@@H](CS(=O)(=O)c2ccc(Cl)cc2)O1)C(c1ccccc1)c1ccccc1 [Example 56, methyl N-[(1S)-1-benzhydryl-2-[[2-[2-[(2R,6S)-6-[(4-chlorophenyl)sulfonylmethyl]morpholin-2-yl]ethyl]phenyl]amino]-2-oxo-ethyl]carbamate], the IC50 was 0.11 µM.
For COC(=O)N[C@H](C(=O)Nc1ccccc1CC[C@@H]1CNC[C@@H](COc2ccc3ncsc3c2)O1)C(c1ccccc1)c1ccccc1 [Example 48, N-[2-(2-{(2R,6S)-6-[(1,3-benzothiazol-6-yloxy)methyl]morpholin-2-yl}ethyl)phenyl]-Nα-(methoxycarbonyl)-β-phenyl-L-phenylalaninamide], the IC50 was 0.0055 µM.
In the case of COC(=O)N[C@H](C(=O)Nc1ccccc1CC[C@@H]1CNC[C@@H](CSc2ccc(Cl)c(Cl)c2)O1)C(c1ccccc1)c1ccccc1 [Example 19, methyl N-[(1S)-1-benzhydryl-2-[[2-[2-[(2R,6S)-6-[(3,4-dichlorophenyl)sulfanylmethyl]morpholin-2-yl]ethyl]phenyl]amino]-2-oxo-ethyl]carbamate], the IC50 is reported as 0.0087 µM.
Work on COC(=O)N[C@H](C(=O)Nc1ccccc1CC[C@@H]1CNC[C@@H](C(F)(F)Cc2ccc(Br)cc2)O1)C(c1ccccc1)c1ccccc1 [Example 65, N-[2-(2-{(2R,6S)-6-[2-(4-bromophenyl)-1,1-difluoroethyl]morpholin-2-yl}ethyl)phenyl]-Nα-(methoxycarbonyl)-β-phenyl-L-phenylalaninamide] yielded an IC50 of 0.05 µM.
Compound COC(=O)N[C@H](C(=O)Nc1ccccc1CC[C@@H]1CNC[C@@H](CSc2cccc3ncccc23)O1)C(c1ccccc1)c1ccccc1 [Example 42, methyl [(2S)-1-oxo-3,3-diphenyl-1-{[2-(2-{(2R,6S)-6-[(quinolin-5-ylsulfanyl)methyl]morpholin-2-yl}ethyl)phenyl]amino}propan-2-yl]carbamate] has an IC50 of 0.00094 µM.
COC(=O)N[C@H](C(=O)NCCCC1CNC[C@@H](CSc2ccc(Cl)cc2C)O1)C(c1ccccc1)c1ccccc1 (stereo partly drawn) [Example 3, methyl N-[(1S)-1-benzhydryl-2-[3-[(6S)-6-[(4-chloro-2-methyl-phenyl)sulfanylmethyl]morpholin-2-yl]propylamino]-2-oxo-ethyl]carbamate] gave an IC50 of 0.42 µM.
Work on COC(=O)N[C@H](C(=O)Nc1ccccc1CC[C@@H]1CNC[C@@H](COc2ccc(-n3cccn3)cc2)O1)C(c1ccccc1)c1ccccc1 [Example 43, N-α-(methoxycarbonyl)-β-phenyl-N-(2-{2-[(2R,6S)-6-{[4-(1H-pyrazol-1-yl)phenoxy]methyl}morpholin-2-yl]ethyl}phenyl)-L-phenylalaninamide] yielded an IC50 of 0.0047 µM.
In the case of COC(=O)N[C@H](C(=O)Nc1ccccc1CC[C@@H]1CNC[C@@H](CSc2nnc(-c3ccncc3)o2)O1)C(c1ccccc1)c1ccccc1 [Example 34, methyl N-[(1S)-1-benzhydryl-2-oxo-2-[[2-[2-[(2R,6S)-6-[[5-(4-pyridyl)-1,3,4-oxadiazol-2-yl]sulfanylmethyl]morpholin-2-yl]ethyl]phenyl]amino]ethyl] carbamate], the IC50 is reported as 0.00042 µM.
